In test [1] the target is T1, APOL1 G2 (Homo sapiens, UniProt O14791, DEL388-389).
T1 construct: expressed in transfected cells; host or cells: HEK293 T-REx clonal lines: HEK T-REx/GCaMP6f/APOL1 G2 K6.3 in A1, HEK293/T-REx APOL1 G2/clone #2 in A2
T1 sequence (O14791 with tags, fused parts or gaps DEL388-389): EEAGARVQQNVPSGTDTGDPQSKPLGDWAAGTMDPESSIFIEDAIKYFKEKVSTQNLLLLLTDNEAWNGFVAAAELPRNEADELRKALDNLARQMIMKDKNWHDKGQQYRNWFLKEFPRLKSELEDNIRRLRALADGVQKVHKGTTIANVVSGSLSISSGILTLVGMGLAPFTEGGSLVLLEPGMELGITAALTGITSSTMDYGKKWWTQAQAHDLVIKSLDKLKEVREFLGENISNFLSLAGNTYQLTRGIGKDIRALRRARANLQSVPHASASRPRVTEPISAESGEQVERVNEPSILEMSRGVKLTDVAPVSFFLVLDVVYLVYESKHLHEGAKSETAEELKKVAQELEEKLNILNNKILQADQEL
Description: APOL1 calcium transport inhibition assay (GCaMP6f calcium influx, FLIPR) in HEK T-REx/GCaMP6f/APOL1 G2 K6.3 cells. It counts as cell-based. The following applies: inhibition of APOL1-mediated calcium influx; geometric mean of at least 2 assay runs, † = single assay run (technical duplicate). How it is done:
A HEK293 clonal cell line was generated to stably express GCaMP6f, a genetically encoded calcium indicator, and inducibly express APOL1 G2 (HEK T-REx/GCaMP6f/APOL1 G2 K6.3). Cells were maintained in the following standard complete medium: DMEM with 4.5 g/L glucose and sodium pyruvate (BioWhittaker, Lonza, BE12-614F), supplemented with 10% FBS Performance Plus (Gibco, 16000044), 1% penicillin-streptomycin (BioWhittaker, DE17-602E), 2 mM ultraglutamine-1 (BioWhittaker cat. BE 17-605/U1), 50 μg/mL Zeocin (InvivoGen, ant-zn), 2.5 μg/mL Blasticidin (InvivoGen, ant-bl-5), and 25 μg/mL Hygromycin (InvivoGen, ant-hg). Standard propagation conditions consisted of plating 9×10^6, 4×10^6, 2×10^6 cells in a T225 flasks to be processed after 2, 3, or 4 days, respectively.
A source plate was generated containing 20 serially diluted compounds in DMSO (duplicate 8-point dose response). Next, 0.8 μL of compounds were transferred from the source plate to a destination plate prefilled with 79.2 μL of Ca^2+ free Tyrode's buffer (130 mM NaCl, 5 mM KCl, 1 mM MgCl2, 5 mM NaHCO3, 20 mM HEPES at pH 7.4). The destination plate was placed on a plate shaker (5 seconds at 2000 rpm) to mix. […] All transfer and mixing steps were conducted with an CyBi®-Well dispenser.
Cells were split by gently washing with DPBS (Euroclone, ECB4004L), followed by a 5-minute incubation (humidified, 37° C. with 5% CO2) with trypsin-EDTA solution (Euroclone, ECB3052D). Detached cells were diluted with standard complete medium without selective agents, counted, and plated in a 384 MTP microplate (GR4332CPL, Twin Helix) (10,000 cells/well in 25 μl/well) using a MATRIX WellMate dispenser. Plates were placed into a humidified incubator (37° C. with 5% CO2) overnight. The following day, 20 μL of doxycycline (Sigma, D9891) at 20 ng/mL in standard complete medium was added to cells with a CyBi @Drop dispenser to induce APOL1 G2 expression. After a 6-hour incubation (humidified, 37° C. with 5% CO2), cells were washed 3 times with Ca^2+ free Tyrode's Buffer (130 mM NaCl, 5 mM KCl, 1 mM MgCl2, 5 mM NaHCO3, 20 mM HEPES at pH 7.4) using a BIOTEK Microplate washer, such that 10 μL of buffer remained in each well after the final wash. Assay plates were then stored at room temperature for 10 minutes. Next, 10 μL of diluted compounds were transferred to the assay plate from the 2× compound plate using a CyBi®-Well dispenser. Compound incubation was then carried out at room temperature for 10 minutes. The assay plate was transferred to the […] and 20 μL of 10 mM Ca^2+ (final concentration=5 mM) Tyrode's buffer was injected.
Table B1 below summarizes the data from this experiment. Unless otherwise specified, AC50 and values are reported as the geometric mean of at least 2 assay runs on separate days. Each run represents the average of a technical replicate, where each compound was assayed twice in the same plate. A superscript † symbol indicates a value from the average of a technical replicate from a single assay run, where each compound was assayed twice in the same plate.
The AC50 values in Table B1 below reflect the compound's ability to prevent calcium influx by inhibiting APOL1. […] Compounds in Table B1 are referred to by the corresponding Compound Number in Table 1, which is also referred to in the synthetic examples. When one or more of the numbered compounds are identified by stereochemistry (for example, (R)- or (S)—), the specific stereoisomer for which data is provided in Table B1 may be identified by the elution order of such compound as described in the synthetic examples. To illustrate, Compound 2 is the first-eluting enantiomer of step 4 of Example 1 and Compound 3 is the second-eluting enantiomer of step 4 of Example 1. Further, by way of illustration, Compound 27 is the first-eluting enantiomeric mixture in step 4 of Example 7 and Compound 28 is the second-eluting enantiomeric mixture in step 4 of Example 7. […]

Test [2] addresses T1, APOL1 G2. Description: Rescue of HEK293 cell death caused by overexpression of APOL1 (CellTiter-Glo luminescence), HEK293/T-REx APOL1 G2/clone #2. It counts as cell-based. The settings on record: reversal of cell death caused by overexpression of APOL1; geometric mean of at least 2 assay runs, † = single assay run (technical duplicate). On the procedure: A HEK293 clonal cell line overexpressing APOL1 G2 (HEK293/T-REx APOL1 G2/clone #2) was maintained in 1×DMEM-GlutaMax (Gibco, 10569-010) media with 10% tetracycline-free FBS (Takara Bio USA, 631101), 5 μg/mL Blasticidin (Gibco, A1113903), and 100 μg/mL Zeocin (Invitrogen, R25001) in T75 flasks. In preparation for the assay, this media was aspirated and 2 mL of prewarmed TrypLE Express (Gibco, 12605-010) was added to a flask to detach cells. The flask was then incubated (humidified, 37° C. with 5% CO2) for 3-5 minutes. Afterwards, 8 mL of prewarmed cell assay media (lx DMEM-GlutaMax media with 10% tetracycline-free FBS) was added to the trypsinized cells. The suspension was gently mixed, and cells were counted using a Countess Cell Counting Chamber (Invitrogen). The suspension was diluted using cell assay media to generate a working stock solution (166,667 cells/mL). Using a MultiDrop Combi (Thermo Electron Corp), 30 μL (final cell density=5,000 cells/well) of the working stock solution was dispensed into each well of white 384-well assay ready plates (Nunc™, 164610) containing 6 ng/mL doxycycline, to induce APOL1 expression, and compound. All compounds were plated in a duplicate 8-point dilution series that consisted of 3-fold stepwise dilutions (0.5% DMSO final). Assay plates were incubated (humidified, 37° C. with 5% CO2) for 17 hours. After the incubation, the plates were equilibrated at room temperature for 1 hour. Next, 15 μl of CellTiter-Glo® reagent (Promega, G7570) was added to each well using a MultiDrop Combi. Plates were placed on an orbital shaker (500 rpm) for 5 minutes to induce cell lysis and then incubated at room temperature for 10 minutes. Luminescence was measured on an Envision plate reader. Collaborative Drug Discovery software was utilized for graphing data. Plots were generated using a four parameter logistic curve fit.
Table B2 below provides the results from this experiment. Unless otherwise specified, EC50 values are reported as the geometric mean of at least 2 assay runs on separate days. Each run represents the average of a technical replicate, where each compound was assayed twice in the same plate. A superscript t symbol indicates a value from the average of a technical replicate from a single assay run, where each compound was assayed twice in the same plate. Compounds in Table B2 are referred to by the corresponding Compound Number in Table 1, which is also referred to in the synthetic examples. When one or more of the numbered compounds are identified by stereochemistry (for example, (R)- or (S)—), the specific stereoisomer for which data is provided in Table B2 may be identified by the elution order of such compound as described in the synthetic examples. To illustrate, Compound 2 is the first-eluting enantiomer of step 4 of Example 1 and Compound 3 is the second-eluting enantiomer of step 4 of Example 1. Further, by way of illustration, Compound 27 is the first-eluting enantiomeric mixture in step 4 of Example 7 and Compound 28 is the second-eluting enantiomeric mixture in step 4 of Example 7. Then, Compound 27 is separated into Compound 29 (the first-eluting enantiomer) and Compound 30 (the second-eluting enantiomer) in Example 8, and Compound 28 is separated into Compound 31 (the first-eluting enantiomer) and Compound 32 (the second-eluting enantiomer) in Example 8. Absolute stereochemistry of such compounds may be identified by methods known in the art.
Rescue EC50 values reported in Table B2 below represent the half-maximal effective concentration for reversal of cell death caused by overexpression of APOL1.

The values that follow come from patent US20240316038A1, “APOL1 INHIBITORS AND METHODS OF USE” (Maze Therapeutics, Inc., priority 2021, published 2024).

For the molecule `CS(=O)(=O)c1ccc(OCC2CN(CCc3cccc(Cl)c3)CCC2O)cc1` (racemic) [Compound 27, rac-trans or cis-1-(3-chlorophenethyl)-3-((4-(methylsulfonyl)phenoxy)methyl)piperidin-4-ol], the AC50 at APOL1 G2 [1] was 1500 nM. In addition, the EC50 on APOL1 G2 [2] amounted to 2130 nM.
Consider `CS(=O)(=O)c1ccc(OCC2CN(CCc3cccc(Cl)c3)CCC2O)cc1` (racemic) [Compound 28, rac-cis or trans-1-(3-chlorophenethyl)-3-((4-(methylsulfonyl)phenoxy)methyl)piperidin-4-ol], for which, on APOL1 G2 [1], the AC50 amounted to 2000 nM. For the same molecule, on APOL1 G2 [2], the 50% effective concentration (EC50) was 2340 nM.
Taken in the same sequence, the figures for `C[C@H]1CN(CCc2cccc(Cl)c2)C[C@@H]1COc1ccc(N(C)S(C)(=O)=O)cc1` (racemic) [Compound 45, rac-trans-N-(4-((1-(3-chlorophenethyl)-4-methylpyrrolidin-3-yl)methoxy)phenyl)-N-methylmethanesulfonamide] were 71.2 nM and less than 13.7 nM.
As to `C[C@@H]1CN(CCc2cccc(Cl)c2)C[C@H]1COc1ccc(S(C)(=O)=O)cc1` (racemic) [Compound 52, rac-trans-1-(3-chlorophenethyl)-3-methyl-4-((4-(methylsulfonyl)phenoxy)methyl)pyrrolidine], on APOL1 G2 [1], the AC50 amounted to 79 nM. The EC50 on APOL1 G2 [2] stood at 124 nM.
Regarding `COCCS(=O)(=O)c1ccc(OC[C@H]2CN(CCc3cccc(Cl)c3)C[C@@H]2C)cc1` (racemic) [Compound 109, rac-trans-1-[2-(3-chlorophenyl)ethyl]-3-{[4-(2-methoxyethane-sulfonyl)phenoxy]methyl}-4-methylpyrrolidine], at APOL1 G2 [1], the AC50 is less than 105 nM. In addition, the EC50 at APOL1 G2 [2] came out at 500 nM.
Turning to `C[C@@H]1CN(CCc2cccc(Cl)c2)C[C@@H]1COc1ccc(S(C)(=O)=O)cc1` (racemic) [Compound 150, rac-cis-1-[2-(3-chlorophenyl)-ethyl]-3-[(4-methanesulfon-ylphenoxy)meth-yl]-4-methyl-pyrrolidine], the AC50 at APOL1 G2 [1] was 721 nM. In addition, the EC50 at APOL1 G2 [2] is 1470 nM.
`C[C@H]1CN(CCc2cccc(Cl)c2)C[C@@H]1COc1ccc(S(=O)(=O)CCCS(C)(=O)=O)cc1` (racemic) [Compound 175, rac-trans-1-[2-(3-chlorophenyl)eth-yl]-3-{[4-(3-methanesulfonylpro-panesulfonyl)phe-noxy]methyl}-4-methylpyrrolidine]: at APOL1 G2 [1], the concentration at half-maximal activity (AC50) was less than 72.8 nM. For the same molecule, on APOL1 G2 [2], the 50% effective concentration (EC50) turned out to be 143 nM.
Turning to `C[C@@]1(O)CN(CCc2cccc(Cl)c2)C[C@H]1COc1ccc(S(C)(=O)=O)cc1` (racemic) [Compound 205], the half-maximal activity concentration (AC50) at APOL1 G2 [1] was less than 236 nM. Besides, on APOL1 G2 [2], the concentration for a half-maximal effect (EC50) turned out to be 1590 nM.
The matching figures for `CC1(O)CN(CCc2cccc(Cl)c2)CC1COc1ccc(S(C)(=O)=O)cc1` (racemic) [Compound 208, rac-trans-1-[2-(3-chlorophenyl)ethyl]-4-[(4-methanesulfonylphenoxy)methyl]-3-methylpyrrolidin-3-ol]: less than 420 nM and 3570 nM.
Consider `CS(=O)(=O)c1ccc(OCC2CCCCN(CCc3cccc(Cl)c3)C2)cc1` (single isomer, unassigned) [Compound 2, (R) or (S)-1-(3-chlorophenethyl)-3-((4-(methylsulfonyl)phenoxy)methyl)azepane], for which the AC50 at APOL1 G2 [1] was 1010 nM. Besides, the half-maximal effective concentration (EC50) at APOL1 G2 [2] stood at 2960 nM.
For the molecule `CS(=O)(=O)c1ccc(OCC2CCCCN(CCc3cccc(Cl)c3)C2)cc1` (single isomer, unassigned) [Compound 3, (S) or (R)-1-(3-chlorophenethyl)-3-((4-(methylsulfonyl)phenoxy)methyl)azepane], the AC50 at APOL1 G2 [1] stood at 205 nM. Besides, the EC50 on APOL1 G2 [2] amounted to 295 nM.
Take `CS(=O)(=O)c1ccc(OCC2(O)CCCN(CCc3cccc(Cl)c3)C2)cc1` (single isomer, unassigned) [Compound 5, (R) or (S)-1-(3-chlorophenethyl)-3-((4-(methylsulfonyl)phenoxy)methyl) piperidin-3-ol]: the AC50 at APOL1 G2 [1] is 10100 nM. On APOL1 G2 [2], the half-maximal effective concentration (EC50) was 5370 nM.
